The source of these data is patent US10857089B2, “Cosmetic compositions comprising purple coneflower pressed juice” (Symrise AG, priority 2015, dated 2020).

In data set [1] the test system is MMP1 gene expression. Nature of the data set: Particle induced MMP1 gene expression, qRT-PCR in keratinocytes. It is filed as cell-based, human. To be noted: SRM1650b, control = 1. The method, then:
(§1) Gene expression was analyzed via qRT-PCR.

The subject of data set [2] is IL-6 gene expression. Nature of the data set: Particle induced IL-6 gene expression, qRT-PCR in keratinocytes. To be noted: SRM1650b, control = 1. It is filed as cell-based, human. The method, then: as §1
(§2) Ginger root CO2 extract has been dissolved in DMSO and diluted in medium. […] Gene expression was analyzed via qRT-PCR. […] Table 7 compiles the results for ginger root CO2 extract altered POMC and IL-6 gene expression
(§3) Purple coneflower pressed juice has been dissolved directly in medium. […] Gene expression was analyzed via qRT-PCR. […] Table 8 compiles the results for purple coneflower pressed juice altered POMC and IL-6 gene expression
(§4) A mixture of purple coneflower pressed juice and ginger root CO2 extract has been pre-dissolved in DMSO and diluted in medium. […] Gene expression was analyzed via qRT-PCR. […] Table 9 compiles the results for purple coneflower pressed juice altered POMC and IL-6 gene expression

Data set [3] deals with CYP1A1 gene expression. Briefly: CYP1A1 gene expression after induction with outdoor particles, qRT-PCR in keratinocytes. To be noted: for CYP1A1 Induction mean ± SE: NHEK adult, 10 μM, untreated = 1.
Experimental: Adult human epidermal keratinocytes were cultured in keratinocyte medium without BPE and without EGF for 24 h prior to addition of model particles (see table 1.1). The model particles were suspended in phosphate buffered saline and were sonicated for 1 min and then directly added to the keratinocytes at 1.5 μg/cm^2. E/Z-2-benzylindene-5,6-dimethoxy-3,3-dimethylindan-1-one (BDDI) has been dissolved in DMSO and diluted in medium. Solutions containing the compound with maximal 0.1% DMSO were applied 2 h prior to treatment with the model particles. Gene expression was analyzed via qRT-PCR. For each gene, a specific PCR primer pair was designed as compiled in Table 2:
Adult human epidermal keratinocytes were cultured in keratinocyte medium without BPE and without EGF for 24 h prior to addition of model particles (see table 1.1). The model particles were suspended in phosphate buffered saline and were sonicated for 1 min and then directly added to the keratinocytes at 1.5 μg/cm^2. Sclareolide has been dissolved in DMSO and diluted in medium. Solutions containing the compound with maximal 0.1% DMSO were applied 2 h prior to treatment with the model particles. Gene expression was analyzed via qRT-PCR. For each gene, a specific PCR primer pair was designed (see Table 2).
The test system of data set [4] is POMC gene expression. Briefly: Particle induced POMC gene expression, qRT-PCR in keratinocytes. It is filed as cell-based, human. To be noted: SRM1650b, control = 1. The method, then: as §1, §2, §3, §4
In data set [5] the test system is CYP1A1 gene expression. Nature of the data set: CYP1A1 gene expression after induction with indoor particles, qRT-PCR in keratinocytes. The format is cell-based, human. To be noted: for Induction mean ± SE (CYP1A1): 10 μM, Huber990 1.5 μg/cm2, untreated = 1. The procedure: as §1

In the case of “E/Z-2-benzylindene-5,6-dimethoxy-3,3-dimethylindan-1-one [BDDI]”, the “MMP1 24 h” value is reported as 0.7 ± 0.014 in data set [1] (1 μM), 0.8 ± 0.016 in data set [1] (2.5 μM) and 0.5 ± 0.022 in data set [1] (10 μM). The “IL-6 6 h” value in data set [2] (1 μM) is recorded as 0.9 ± 0.067; in data set [2] (2.5 μM), 0.6 ± 0.006; in data set [2] (10 μM), 0.5 ± 0.01. Besides, the “CYP1A1 Induction mean ± SE” value in data set [3] (6 h, SRM1650 1.5 μg/cm2) is reported as 0.02 ± 0.00; in data set [3] (6 h, SRM2975 1.5 μg/cm2, particle control 1.03), 0.20 ± 0.00; in data set [3] (24 h, SRM2975 1.5 μg/cm2), 0.01 ± 0.00. Besides, the “inhibition of particle induced Cyp1A1 gene expression (in words)” value in data set [3] (outdoor model particles) and in data set [5] (indoor model particles) was “capable to inhibit” throughout. Further, the “POMC 6 h” value is listed as 0.9 ± 0.018 in data set [4] (1 μM), 1.1 ± 0.02 in data set [4] (2.5 μM) and 0.9 ± 0.001 in data set [4] (10 μM). The figures for the “Induction mean ± SE (CYP1A1)” value in data set [5] (6 h) and in data set [5] (24 h) were 0.05 ± 0.00 and 0.20 ± 0.00, respectively.
